Measured values published in ChEMBL document CHEMBL5260829, “Recent advances in the discovery of small molecule c-Met Kinase inhibitors” (Eur J Med Chem, 2018).
One block for each compound: values may come before it.

Assays:
[1] = biological target: T1, Hepatocyte growth factor receptor (Homo sapiens, UniProt P08581); test: Inhibition of c-Met (unknown origin) kinase activity using peptide as substrate in presence of 33P-ATP incubated for 20 to 30 mins by scintillation counter analysis
A549 [2] = test: Antiproliferative activity against human A549 cells assessed as reduction in cell proliferation incubated for 48 hrs by sulforhodamine B assay; assay type: functional, cell-based; details: A549, 48 h
HT-29 [3] = test: Antiproliferative activity against human HT-29 cells assessed as reduction in cell proliferation incubated for 48 hrs by sulforhodamine B assay; assay type: functional, cell-based; details: HT-29, 48 h
MKN-45 [4] = test: Antiproliferative activity against human MKN-45 cells assessed as reduction in cell proliferation incubated for 48 hrs by sulforhodamine B assay; assay type: functional, cell-based; details: MKN-45, 48 h
HepG2 [5] = test: Antiproliferative activity against human HepG2 cells assessed as reduction in cell proliferation incubated for 48 hrs by MTT assay; assay type: functional, cell-based; details: HepG2, 48 h
MKN-45 [6] = test: cells; details: Homo sapiens, MKN-45, 72 h
EBC-1 [7] = test: cells; details: Homo sapiens, EBC-1, 72 h
MKN-45 [8] = test: Antiproliferative activity against human MKN-45 cells assessed as reduction in cell proliferation incubated for 72 hrs by CellTiter-Glo luminescent assay; assay type: functional, cell-based; details: MKN-45, 72 h
EBC-1 [9] = test: Antiproliferative activity against human EBC-1 cells assessed as reduction in cell proliferation incubated for 72 hrs by CellTiter-Glo luminescent assay; assay type: functional, cell-based; details: EBC-1, 72 h
[10] = biological target: T1, Hepatocyte growth factor receptor; test: Inhibition of c-Met (unknown origin) kinase activity using poly(Glu-Tyr) at 4:1 ratio as substrate in presence of ATP incubated for 30 mins by HTRF assay
[11] = biological target: T1, Hepatocyte growth factor receptor; test: Inhibition of c-Met (unknown origin) using poly(Glu-Tyr) at 4:1 ratio as substrate in presence of ATP incubated for 60 mins by ELISA
BaF3 [12] = test: cells; details: Mus musculus, BaF3, 72 h
HUVEC = test: cells; details: Homo sapiens, 72 h
[13] = biological target: T1, Hepatocyte growth factor receptor; test: Inhibition of c-Met (unknown origin) kinase activity using peptide as substrate in presence of ATP incubated for 1 hrs by ELISA
BaF3 [14] = test: Antiproliferative activity against mouse BaF3 cells expressing […] protein assessed as reduction in cell proliferation incubated for 72 hrs by Cell Titer-Glo luminescence assay; assay type: functional, cell-based; details: BaF3, 72 h
[15] = biological target: T1, Hepatocyte growth factor receptor; test: Inhibition of c-Met (unknown origin)
[16] = biological target: T1, Hepatocyte growth factor receptor; test: Inhibition of recombinant c-Met (unknown origin) using peptide as substrate in presence of ATP by TR-FRET assay
Hs746T = test: Antiproliferative activity against human Hs746T cells assessed as reduction in cell viability incubated for 72 hrs by WST-8 assay; assay type: functional, cell-based
MKN-45 [17] = test: cells; details: Homo sapiens, MKN-45, 72 h; remark: listed apart in the source
[18] = biological target: T1, Hepatocyte growth factor receptor; test: Inhibition of c-Met (unknown origin) kinase activity using biotinylated poly-tyrosine as substrate in presence of ATP incubated for 1 hr by AlphaQuest analysis
MKN-45 [19] = test: Antiproliferative activity against human MKN-45 cells assessed as reduction in cell proliferation incubated for 48 hrs; assay type: functional, cell-based; details: MKN-45, 48 h
[20] = biological target: T1, Hepatocyte growth factor receptor; test: Inhibition of His6-tagged recombinant human c-Met using 5FAM-KKK-SPGEYVNIGFG-NH2 as substrate in presence of ATP incubated for 60 mins by AiphaQuest assay
Bel-7402 = test: Antiproliferative activity against human Bel-7402 cells assessed as reduction in cell viability incubated for 24 hrs by MTT assay; assay type: functional, cell-based; details: Bel-7402, 24 h
HepG2 [21] = test: Antiproliferative activity against human HepG2 cells assessed as reduction in cell viability incubated for 24 hrs by MTT assay; assay type: functional, cell-based; details: HepG2, 24 h
A549 [22] = test: Antiproliferative activity against human A549 cells assessed as reduction in cell viability incubated for 24 hrs by MTT assay; assay type: functional, cell-based; details: A549, 24 h
HeLa = test: Antiproliferative activity against human HeLa cells assessed as reduction in cell viability incubated for 24 hrs by MTT assay; assay type: functional, cell-based
[23] = Cmax in mouse at 10 mg/kg, po; assay type: ADME, organism-based; parameters: dose 10 mg/kg, route po; details: in vivo
[24] = Half life in mouse at 10 mg/kg, po; assay type: ADME, organism-based; details: in vivo
[25] = AUC in mouse at 10 mg/kg, po; assay type: ADME, organism-based; parameters: dose 10 mg/kg, route po; details: in vivo
[26] = Oral bioavailability in mouse at 10 mg/kg; assay type: ADME, organism-based; details: in vivo
NIH3T3 [27] = test: In vivo antitumor activity against mouse NIH3T3 cells expressing […] protein xenografted in nude mouse assessed as tumor growth inhibition at 100 mg/kg,po for 11 days; assay type: functional; details: NIH3T3, 264 h, time 11 day, read-out: TGI
SNU-5 = test: cells; details: Homo sapiens, SNU-5, 72 h
BaF3 [28] = test: cells; details: Mus musculus, BaF3, 72 h; remark: listed apart in the source
NIH3T3 [29] = test: cells; details: Mus musculus, NIH3T3, 72 h
HT-29 [30] = test: Antiproliferative activity against human HT-29 cells assessed as reduction in cell proliferation incubated for 72 hrs by MTT assay; assay type: functional, cell-based; details: HT-29, 72 h
EBC-1 [31] = test: cells; details: Homo sapiens, EBC-1, 72 h; remark: listed apart in the source

T1 sequence (P08581 whole entry): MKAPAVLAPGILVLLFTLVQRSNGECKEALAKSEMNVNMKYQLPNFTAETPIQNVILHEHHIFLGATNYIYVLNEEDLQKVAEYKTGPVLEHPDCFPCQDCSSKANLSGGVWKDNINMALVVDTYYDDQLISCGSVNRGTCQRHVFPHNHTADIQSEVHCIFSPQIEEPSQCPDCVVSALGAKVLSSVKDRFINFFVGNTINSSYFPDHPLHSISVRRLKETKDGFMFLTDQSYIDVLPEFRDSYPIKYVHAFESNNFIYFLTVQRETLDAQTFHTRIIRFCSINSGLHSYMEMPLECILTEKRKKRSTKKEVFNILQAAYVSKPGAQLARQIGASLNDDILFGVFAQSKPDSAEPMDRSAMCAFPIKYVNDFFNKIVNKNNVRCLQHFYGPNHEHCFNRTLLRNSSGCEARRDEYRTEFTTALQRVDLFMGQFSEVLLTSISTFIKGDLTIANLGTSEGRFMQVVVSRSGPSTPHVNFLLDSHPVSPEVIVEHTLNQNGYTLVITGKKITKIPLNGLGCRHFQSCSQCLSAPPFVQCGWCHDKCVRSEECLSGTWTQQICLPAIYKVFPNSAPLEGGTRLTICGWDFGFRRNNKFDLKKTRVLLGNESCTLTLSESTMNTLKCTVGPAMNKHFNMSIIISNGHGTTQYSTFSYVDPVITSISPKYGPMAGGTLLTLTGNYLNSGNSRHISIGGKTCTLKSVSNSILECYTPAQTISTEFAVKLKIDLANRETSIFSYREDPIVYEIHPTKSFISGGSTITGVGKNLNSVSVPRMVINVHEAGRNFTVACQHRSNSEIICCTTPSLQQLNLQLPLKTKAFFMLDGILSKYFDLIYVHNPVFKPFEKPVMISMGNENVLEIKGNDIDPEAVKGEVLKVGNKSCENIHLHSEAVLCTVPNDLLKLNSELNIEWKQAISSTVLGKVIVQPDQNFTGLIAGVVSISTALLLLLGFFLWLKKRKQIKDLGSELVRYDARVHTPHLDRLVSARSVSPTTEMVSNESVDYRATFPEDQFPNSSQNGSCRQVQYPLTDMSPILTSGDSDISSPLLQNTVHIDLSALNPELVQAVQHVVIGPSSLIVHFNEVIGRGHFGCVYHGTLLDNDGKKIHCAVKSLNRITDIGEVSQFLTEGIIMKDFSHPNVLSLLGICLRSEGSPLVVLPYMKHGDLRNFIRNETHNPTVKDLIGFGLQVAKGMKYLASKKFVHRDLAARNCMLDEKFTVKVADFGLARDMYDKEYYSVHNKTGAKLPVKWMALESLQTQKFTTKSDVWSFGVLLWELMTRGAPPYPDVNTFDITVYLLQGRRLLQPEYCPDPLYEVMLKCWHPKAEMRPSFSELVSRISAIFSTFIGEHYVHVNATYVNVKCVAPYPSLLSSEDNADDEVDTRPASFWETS

SMILES: O=C(CSc1nc(=O)c(/C=C/c2ccco2)n[nH]1)N/N=C/c1cccs1
IC50 [1]: 4310 nM | IC50 (A549 [2]): 20 nM | IC50 (HT-29 [3]): 30 nM | IC50 (MKN-45 [4]): 60 nM

SMILES: CC(C)(C)OC(=O)N1CCc2c(sc3ncnc(Oc4ccc(NC(=O)C5(C(=O)Nc6ccc(F)cc6)CC5)cc4F)c23)C1
IC50 (HepG2 [5]): 1700 nM

SMILES: Fc1ccc(Cl)c(Sc2n[nH]c3ncc(-c4cnn(C5CCNCC5)c4)cc23)c1Cl
IC50 (MKN-45 [8]): 329 nM | IC50 (EBC-1 [9]): 479 nM

SMILES: Cc1ccc(N2NC(=O)/C(=C/c3ccc(-c4cc([N+](=O)[O-])ccc4O)o3)C2=O)cc1C
IC50 [11]: 460 nM

SMILES: Cn1cc(-c2ccc(=O)n(C[C@@H]3CN(c4ncc(OCC5CCNCC5)cn4)CCO3)n2)cn1
IC50 [16]: 19 nM | IC50 (Hs746T): 3170 nM

SMILES: COC(=O)c1ccc(N2NC(=O)/C(=C/c3ccc(-c4ccc(Cl)c(C(=O)O)c4)o3)C2=O)cc1
IC50 [11]: 9500 nM

SMILES: CC(C)=C1C/C=C(\C)CC/C=C(\C)CC1OS(=O)(=O)c1ccc(C)cc1 (stereo not given)
inhibition [20]: 56% | IC50 (Bel-7402): 71800 nM | IC50 (HepG2 [21]): 56200 nM | IC50 (A549 [22]): 84500 nM | IC50 (HeLa): 88600 nM

SMILES: CC(C)=C1C/C=C(\C)CC/C=C(\C)CC1OC(=O)c1ccc(C)cc1 (stereo not given)
IC50 (Bel-7402): 75800 nM | IC50 (HepG2 [21]): 68200 nM | IC50 (A549 [22]): 84800 nM | IC50 (HeLa): 83600 nM

Second part, led by results:

IC50 (MKN-45 [6]): 21 nM | IC50 (EBC-1 [7]): 12 nM
SMILES: COc1ccc2c(OCc3nnc4ncc(-c5ccccc5)nn34)ccnc2c1

IC50 [10]: 17.6 nM | IC50 (MKN-45 [6]): 60 nM
SMILES: COc1cc2c(Oc3ccc(NC(=O)Nc4nc5c(C)ccc(C)c5s4)cc3F)ccnc2cc1OCCCN1CCN(C)CC1

IC50 (BaF3 [12]): 130 nM
SMILES: Cc1c(C(=O)Nc2ccc(Oc3ccnc(-c4nncn4CCCN4CCN(C)CC4)c3)c(F)c2)c(=O)n(-c2ccccc2)n1C
IC50 (HUVEC): 300 nM

IC50 [13]: 53.4 nM | IC50 (BaF3 [14]): 253 nM
SMILES: Clc1ccc(-c2cn3cccc(COc4nnc5ccc(Cl)nn45)c3n2)c(Cl)c1

IC50 [15]: 14.5 nM
SMILES: c1cnc2ccc(Cn3nnc4ncc(-c5ccc6[nH]c7c(c6c5)CNCC7)nc43)cc2c1

IC50 (MKN-45 [17]): 570 nM
SMILES: COc1cc2nccc(Oc3ccc(NC(=O)C4(Cl)CCCN(c5ccc(F)cc5)C4=O)cc3F)c2cc1OC (stereo not given)

IC50 [18]: 10400 nM | IC50 (MKN-45 [19]): 125000 nM
SMILES: OC1CCC(n2cc(-c3ncc4ncn(Cc5ccc6ncccc6c5)c4n3)cn2)CC1 (stereo not given)

IC50 [10]: 2.2 nM | IC50 (MKN-45 [6]): 30 nM
SMILES: COc1cc2c(Oc3ccc(N/C=C4\C(=O)N(c5ccccc5C(F)(F)F)N=C4C)cc3F)ccnc2cc1OCCCN1CCOCC1

IC50 [10]: 1.35 nM | IC50 (MKN-45 [6]): 10 nM
SMILES: COc1cc2c(Oc3ccc(NC(=O)c4cn(-c5ccccc5C(F)(F)F)c5ccccc5c4=O)cc3F)ccnc2cc1OCCCN1CCCCC1

IC50 (MKN-45 [6]): 450 nM
SMILES: COc1cc2c(Oc3ccc(NC(=O)/C=C/S(=O)(=O)c4ccccc4)cc3F)ccnc2cc1OCCCN1CCN(C)CC1

Cmax [23]: 2170 ng/mL | half-life [24]: 2.07 h | AUC [25]: 6280 ng·h/mL | bioavailability [26]: 28.3% | IC50 (MKN-45 [6]): 4300 nM | IC50 (SNU-5): 5300 nM | IC50 (BaF3 [28]): 590 nM
SMILES: O=C(Nc1ccc(Oc2ccnc3[nH]c(-c4ccsc4)nc23)cc1)c1cccn(-c2ccc(F)cc2)c1=O
inhibition in vivo at 100 mg/kg (NIH3T3 [27]): 30.9% | IC50 (NIH3T3 [29]): 1600 nM

IC50 (HT-29 [30]): 40 nM | IC50 (MKN-45 [6]): 390 nM
SMILES: COc1cc2c(Oc3ccc(N/C=C(\C#N)C(=O)Nc4ccc(C)cc4)cc3F)ccnc2cc1OCCCN1CCN(C)CC1

IC50 (MKN-45 [17]): 9.9 nM | IC50 (EBC-1 [31]): 19.8 nM
SMILES: CNC(=O)c1ccc(-c2ccc3ncc(S(=O)(=O)n4ccc5cnccc54)n3c2)cc1F
